We go through two compounds from US6060487A, “Indanol compounds” (Adir et Compagnie, priority 1997, dated 2000).

For one assay, the target named is T1, human 5-HT1A receptor (Homo sapiens, UniProt P08908).
T1 construct: expressed in transfected cells; host or cells: CHO cells (membranes)
T1 sequence (P08908 1-422): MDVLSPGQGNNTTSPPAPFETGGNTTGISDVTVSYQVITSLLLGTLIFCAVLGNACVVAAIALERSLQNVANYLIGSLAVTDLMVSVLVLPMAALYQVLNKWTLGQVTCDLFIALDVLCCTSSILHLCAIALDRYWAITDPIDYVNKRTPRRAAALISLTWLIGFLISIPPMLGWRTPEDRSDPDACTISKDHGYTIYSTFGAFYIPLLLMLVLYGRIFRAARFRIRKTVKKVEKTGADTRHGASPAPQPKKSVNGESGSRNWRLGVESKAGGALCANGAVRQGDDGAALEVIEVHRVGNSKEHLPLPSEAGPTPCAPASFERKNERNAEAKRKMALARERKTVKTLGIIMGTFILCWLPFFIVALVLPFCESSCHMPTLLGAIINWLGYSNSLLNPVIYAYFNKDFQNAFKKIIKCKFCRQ
Briefly: Affinity for human h5-HT1A receptors, competition with [^3 H]-8-OH-DPAT. In kind it is binding. How it is done:
The radioactivity retained on the filters is determined by liquid scintillation counting.

In a further assay the target is α1 receptors. Briefly: Affinity for α1 receptors of rats, competition with [^3 H]-prazosin. In kind it is binding. Particulars: frontal cortex of rat, 25° C. How it is done:
The radioactivity retained on the filters is determined by liquid scintillation counting. The binding isotherms are analysed by non-linear regression using `PRISM` software (GraphPad Software Inc., S. Diego, USA) to determine IC50 values.

For assay [1], the target named is T2, pre-synaptic 5-HT1A receptors (Rattus norvegicus, UniProt P19327).
T2 construct: in the Dorsal Nucleus of the Raphe in Rats (pre-synaptic 5-HT1A receptors); from tissue; host or cells: living anaesthetised rat, serotoninergic neurons of the dorsal nucleus of the raphe
T2 sequence (P19327 1-422): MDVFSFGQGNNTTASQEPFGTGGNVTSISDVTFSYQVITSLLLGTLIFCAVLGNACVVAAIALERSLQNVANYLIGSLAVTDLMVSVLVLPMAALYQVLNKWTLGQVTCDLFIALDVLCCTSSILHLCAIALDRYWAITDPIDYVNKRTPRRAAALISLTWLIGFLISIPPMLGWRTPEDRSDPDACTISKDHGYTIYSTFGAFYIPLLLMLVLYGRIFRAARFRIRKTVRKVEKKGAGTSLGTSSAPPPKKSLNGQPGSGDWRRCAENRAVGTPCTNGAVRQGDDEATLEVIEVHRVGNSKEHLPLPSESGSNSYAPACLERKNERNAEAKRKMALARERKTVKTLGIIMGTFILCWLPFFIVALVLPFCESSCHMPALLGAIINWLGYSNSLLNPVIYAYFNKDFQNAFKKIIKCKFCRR
Briefly: In vivo recording of unitary extracellular electrical activity in the dorsal nucleus of the raphe in rats. How it is done: 1. "In Vivo" Recording of Unitary Extracellular Electrical Activity in the Dorsal Nucleus of the Raphe in Rats (pre-synaptic 5-HT1A receptors)
The administration of a 5-HT1A serotoninergic agonist decreases the discharge frequency of neurons in a dose-dependant manner. That effect is reversed by the selective 5-HT1A antagonist, WAY 100,635.
The rats are anaesthetised with chloral hydrate (400 mg/kg, i.p.) and placed in a stereotaxis apparatus (Unimecanique, France) after catheterisation of the femoral vein. The level of anaesthesia is maintained by i.p. administration of chloral hydrate every hour; the rectal temperature is maintained at 37±1° C. by means of a thermostatically controlled heated cover. A tungsten microelectrode (10 M.OMEGA., 1 μM) is inserted using an electronic microinsertion device (Unimecanique, France) into the dorsal nucleus of the raphe (AP: -7.8/bregma; L: 0.0; H: 5.0-6.5/dura; Paxinos and Watson Atlas, 1986). The potentials of the serotoninergic cells are characterised by their morphology (positive/negative biphase potentials, of a duration of less than 2.5 msec) and their slow and regular discharge rhythm of from 0.5 to 2.5 Hz. A single cell per animal is recorded.
After a period of ≥5 min (basal activity) and a first injection of carrier (distilled water to which a few drops of dilute lactic acid have been added, pH adjusted to 5 with 1N NaOH), the compound of the invention is administered intravenously in cumulatively increasing doses at intervals of 5 minutes.
Acquisition of the data is effected by the software Spike2 (Cambridge Electronic Design, England). The discharge frequency is measured over one minute at the maximum variation between each injection and is expressed as a percentage variation in relation to the basal activity (average of the 5 minutes preceding the first treatment) defined as 100%. The ID50 is calculated using a simple linear regression method with repeated measurements.

The target of assay [2] is T3, post-synaptic 5-HT1A receptors (Rattus norvegicus, UniProt P19327).
T3 construct: Body Temperature Test in Rats (post-synaptic 5-HT1A receptors); from tissue; host or cells: living rat (whole animal)
T3 sequence (P19327 1-422): T2 sequence (P19327 1-422)
In words: Body temperature test in rats. In kind it is in vivo. The text has this: 2. Body Temperature Test in Rats (post-synaptic 5-HT1A receptors)
That effect is reversed by 5-HT1A antagonists,as has been shown by M. J. Millan (J. Pharmacol. Exp. Ther., 1993, 264, 1346-1376). According to the protocol described by that author, compounds of the invention which when administered on their own bring about a decrease in body temperature will be identified as post-synaptic 5-HT1A serotoninergic agonists. On the other hand, compounds of the invention that reverse the hypothermia induced by the prototypical 5-HT1A agonist 8-OH-DPAT will be identified as post-synaptic 5-HT1A antagonists.

A short description of assay [3]: Ultrasonic vocalisation test in rats. The note with it: for duration of the ultrasonic vocalisations: mean ± s.e.m. Type of assay: in vivo, Male Wistar rats. From the text: 3. Ultrasonic Vocalisation Test in Rats
When a rat is placed in an environment previously associated with an unpleasant experience (electric shocks to the paws), its anxiety is shown by the emission of inaudible cries (or ultrasonic vocalisations).
Standard cages (Coulbourn Instruments), placed in sound-absorbing ventilated boxes, are fitted with a floor composed of electrifiable metal bars (shock generator and scrambler Med Associates Inc) and with a microphone located in the centre of the ceiling. The ultrasonic noises are converted into an audible range (bat-detector Buitenbedrijf). The signals modified in that manner are filtered and then processed (RTS software, Engineering Design). The spectrograms obtained are recorded on DAT tapes.
Male Wistar rats weighing 180-200 g on their arrival are placed in cages of four with free access to water and food from five days before the start of the study until the end of the study. The procedure employed is divided into three successive stages separated by 24 hours, called training, selection and test. During the training period, the animals are placed individually into cages where they receive six electric shocks (0.8 mA, 8 s) distributed randomly over a period of seven minutes. Selection comprises placing each animal in a cage for two minutes where it receives a single shock and putting it back in the cage thirty minutes later to record the ultrasonic vocalisations for a period of ten minutes; those animals in which the duration of the vocalisations is less than 90 seconds are excluded from the remainder of the experiment. The test phase proceeds in a similar manner to the selection stage, except that the compounds or the carrier are administered at the end of the two-minute period.

For assay [4], the target named is T3, post-synaptic 5-HT1A receptors. The note with it: M. J. Millan, 1993; cited from earlier work.

A word on the Ki: it is the dissociation constant of the complex between target and ligand, obtained from inhibition or displacement. Low readings indicate a stronger hold on the target, high ones a looser hold on the target. In the case of `O[C@@H]1c2ccccc2C[C@H]1N1CCN(c2cccc3c2OCCO3)CC1` (relative stereo) [Example 6, Trans-2-[4-(2,3-dihydro[1,4]benzodioxin-5-yl)piperazin-1-yl]indan-1-ol], the Ki worked out at 1.73 nM on human 5-HT1A receptor and 932 nM at α1 receptors. In addition, the “discharge frequency, percentage in relation to the basal activity (100%)” value in assay [1] (0.25 μg/kg i.v., n = 3, mean ± standard error of the mean) is given as 73.84%; in assay [1] (0.5 μg/kg i.v., n = 3, mean ± standard error of the mean) it was 52.23%; in assay [1] (1 μg/kg i.v., n = 3, mean ± standard error of the mean), 36.16%. The ED50 in assay [1] (intravenous, rat dorsal raphe, read-out: ID50 (decrease of discharge frequency)) was determined as 0.00059 mg/kg; in assay [2] (sc, read-out: ID50 (reversal of the effects of 8-OH-DPAT, hypothermia)) it was 1.3 mg/kg. The “character at pre-synaptic 5-HT1A receptors” value in assay [1] (pre-synaptic, rat, i.v.) is given as “behaves like a 5-HT1A serotoninergic agonist at the pre-synaptic level”. The “discharge frequency, percentage in relation to the basal activity (100%), after WAY 100,635” value in assay [1] (reversal by WAY 100,635 31 μg/kg after cumulative Example 6 doses, n = 3, mean ± standard error of the mean) is listed as 140.48%. The “character at post-synaptic 5-HT1A receptors” value in assay [2] (post-synaptic, s.c.) is listed as “behaves like a post-synaptic 5-HT1A serotoninergic antagonist”. For the same compound, the “duration of the ultrasonic vocalisations” value was found to be 170 ± 62 s in assay [3] (0.04 mg/kg s.c., n = 6); 28 ± 14 s in assay [3] (0.16 mg/kg s.c., n = 3, ** p < 0.01 vs carrier (Dunnett test)); 8 ± 8 s in assay [3] (2.5 mg/kg s.c., n = 5, ** p < 0.01 vs carrier (Dunnett test)). In addition, in assay [3] (0.16 and 2.5 mg/kg s.c.), the “effect on duration of the vocalisations (anxiolytic activity)” value was “brings about a reduction in the duration of the vocalisations, indicating its anxiolytic activity”.

For the compound `CCCN(CCC)C1CCc2cccc(O)c2C1` (stereo not drawn) [Example 8-OH-DPAT], the “effect on body temperature” value in assay [4] is on record as “brings about a decrease in body temperature in a dose-dependent manner”.
